Experimental data reported in PubChem BioAssay (NCI).
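Results reflect a 48-hour exposure of cells in 96-well plates to compound at five concentrations. Here, GI50 denotes the concentration required for 50% inhibition of growth. TGI: concentration producing complete growth inhibition.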

Tests used:
Assay in all cases: NCI tumour cell line growth inhibition, 48 h
PC-3 prostate = system: PC-3 prostate
DU-145 prostate = system: DU-145 prostate
TK-10 renal = system: TK-10 renal
RPMI-8226 leukemia = system: RPMI-8226 leukemia
HT29 colon = system: HT29 colon
EKVX NSCLC = system: EKVX NSCLC
CCRF-CEM leukemia = system: CCRF-CEM leukemia
ACHN renal = system: ACHN renal
SN12C renal = system: SN12C renal
MDA-MB-435 = system: MDA-MB-435
SF-295 CNS = system: SF-295 CNS
HCC-2998 colon = system: HCC-2998 colon
NCI-H23 lung = system: NCI-H23 lung
NCI-H522 lung = system: NCI-H522 lung
SK-MEL-5 melanoma = system: SK-MEL-5 melanoma
OVCAR-8 ovarian = system: OVCAR-8 ovarian
HL-60(TB) leukemia = system: HL-60(TB) leukemia
SR leukemia = system: SR leukemia
SF-268 CNS = system: SF-268 CNS
CAKI-1 renal = system: CAKI-1 renal
SK-OV-3 ovarian = system: SK-OV-3 ovarian
SF-539 CNS = system: SF-539 CNS
A549 NSCLC = system: A549 NSCLC
COLO 205 colon = system: COLO 205 colon
MALME-3M melanoma = system: MALME-3M melanoma
MOLT-4 leukemia = system: MOLT-4 leukemia
OVCAR-4 ovarian = system: OVCAR-4 ovarian
RXF 393 renal = system: RXF 393 renal
UACC-62 melanoma = system: UACC-62 melanoma
HCT-15 colon = system: HCT-15 colon
T-47D breast = system: T-47D breast
U251 CNS = system: U251 CNS
HS 578T breast = system: HS 578T breast
BT-549 breast = system: BT-549 breast
NCI-H226 lung = system: NCI-H226 lung
IGROV1 ovarian = system: IGROV1 ovarian
NCI-H460 lung = system: NCI-H460 lung
SNB-75 CNS = system: SNB-75 CNS
K-562 leukemia = system: K-562 leukemia
UACC-257 melanoma = system: UACC-257 melanoma
SW-620 colon = system: SW-620 colon
KM12 colon = system: KM12 colon
SK-MEL-2 melanoma = system: SK-MEL-2 melanoma
SNB-19 CNS = system: SNB-19 CNS
M14 melanoma = system: M14 melanoma
HCT-116 colon = system: HCT-116 colon
MDA-MB-231 breast = system: MDA-MB-231 breast
HOP-62 NSCLC = system: HOP-62 NSCLC
A498 renal = system: A498 renal
OVCAR-3 ovarian = system: OVCAR-3 ovarian
SK-MEL-28 melanoma = system: SK-MEL-28 melanoma
OVCAR-5 ovarian = system: OVCAR-5 ovarian
NCI/ADR-RES ovarian = system: NCI/ADR-RES ovarian
786-0 renal = system: 786-0 renal
UO-31 renal = system: UO-31 renal
LOX IMVI melanoma = system: LOX IMVI melanoma
MCF7 breast = system: MCF7 breast

`NC(=O)Nc1ccc2ncnc(Nc3ccc(Cl)cc3)c2c1` was tested, and the GI50 (PC-3 prostate) was 19.4 µM, the TGI (PC-3 prostate) was > 96.2 µM and the GI50 (DU-145 prostate) was 4.21 µM. For the same compound, the TGI (DU-145 prostate) was > 100 µM, the GI50 (TK-10 renal) was 1.72 µM and the TGI (TK-10 renal) was 23.4 µM. For the same compound, the GI50 (RPMI-8226 leukemia) was 24.3 µM, the TGI (RPMI-8226 leukemia) was > 88.8 µM and the GI50 (HT29 colon) was 25.3 µM. The TGI (HT29 colon) was > 100 µM, the GI50 (EKVX NSCLC) was 0.369 µM and the TGI (EKVX NSCLC) was 11.9 µM. The GI50 (CCRF-CEM leukemia) was 20.3 µM, the TGI (CCRF-CEM leukemia) was > 100 µM and the GI50 (ACHN renal) was 1.49 µM. The TGI (ACHN renal) was 45.3 µM, the GI50 (SN12C renal) was 11.4 µM and the TGI (SN12C renal) was > 70.7 µM. It also gave a GI50 (MDA-MB-435) of 17.8 µM, a TGI (MDA-MB-435) of 44.6 µM and a GI50 (SF-295 CNS) of 19.2 µM. For the same compound, the TGI (SF-295 CNS) was > 67.4 µM, the GI50 (HCC-2998 colon) was 33.5 µM and the TGI (HCC-2998 colon) was > 100 µM. The GI50 (NCI-H23 lung) was 21.6 µM, the TGI (NCI-H23 lung) was 69 µM and the GI50 (NCI-H522 lung) was 6.08 µM. For the same compound, the TGI (NCI-H522 lung) was 36 µM, the GI50 (SK-MEL-5 melanoma) was 13.6 µM and the TGI (SK-MEL-5 melanoma) was 30.8 µM. The GI50 (OVCAR-8 ovarian) was 20.4 µM, the TGI (OVCAR-8 ovarian) was > 96.6 µM and the GI50 (HL-60(TB) leukemia) was 25.9 µM. It also gave a TGI (HL-60(TB) leukemia) of 64.4 µM, a GI50 (SR leukemia) of 21.3 µM and a TGI (SR leukemia) of 75.8 µM. The GI50 (SF-268 CNS) was 21.7 µM, the TGI (SF-268 CNS) was > 100 µM and the GI50 (CAKI-1 renal) was 1.6 µM. The TGI (CAKI-1 renal) was 42.2 µM, the GI50 (SK-OV-3 ovarian) was 4.5 µM and the TGI (SK-OV-3 ovarian) was 34.1 µM. The GI50 (SF-539 CNS) was 30.7 µM, the TGI (SF-539 CNS) was > 100 µM and the GI50 (A549 NSCLC) was 18.4 µM. For the same compound, the TGI (A549 NSCLC) was > 100 µM, the GI50 (COLO 205 colon) was 30.6 µM and the TGI (COLO 205 colon) was > 100 µM. For the same compound, the GI50 (MALME-3M melanoma) was 28.2 µM, the TGI (MALME-3M melanoma) was > 77.9 µM and the GI50 (MOLT-4 leukemia) was 21.4 µM. For the same compound, the TGI (MOLT-4 leukemia) was 84.7 µM, the GI50 (OVCAR-4 ovarian) was 11.8 µM and the TGI (OVCAR-4 ovarian) was > 100 µM. For the same compound, the GI50 (RXF 393 renal) was 17 µM, the TGI (RXF 393 renal) was 83.6 µM and the GI50 (UACC-62 melanoma) was 14.3 µM. The TGI (UACC-62 melanoma) was 37.3 µM, the GI50 (HCT-15 colon) was 20.1 µM and the TGI (HCT-15 colon) was > 100 µM. For the same compound, the GI50 (T-47D breast) was 10.2 µM, the TGI (T-47D breast) was > 85.1 µM and the GI50 (U251 CNS) was 25.4 µM. For the same compound, the TGI (U251 CNS) was > 100 µM, the GI50 (HS 578T breast) was 17 µM and the TGI (HS 578T breast) was 66.4 µM. For the same compound, the GI50 (BT-549 breast) was 18.9 µM, the TGI (BT-549 breast) was 67.4 µM and the GI50 (NCI-H226 lung) was 22.9 µM. The TGI (NCI-H226 lung) was > 100 µM, the GI50 (IGROV1 ovarian) was 9.06 µM and the TGI (IGROV1 ovarian) was 34.3 µM. The GI50 (NCI-H460 lung) was 24.5 µM, the TGI (NCI-H460 lung) was > 100 µM and the GI50 (SNB-75 CNS) was 8 µM. For the same compound, the TGI (SNB-75 CNS) was 61 µM, the GI50 (K-562 leukemia) was 28.9 µM and the TGI (K-562 leukemia) was > 100 µM. The GI50 (UACC-257 melanoma) was 22 µM, the TGI (UACC-257 melanoma) was 66 µM and the GI50 (SW-620 colon) was 42.8 µM. The TGI (SW-620 colon) was > 100 µM, the GI50 (KM12 colon) was 33.4 µM and the TGI (KM12 colon) was > 100 µM. It also gave a GI50 (SK-MEL-2 melanoma) of 18.5 µM, a TGI (SK-MEL-2 melanoma) of 46.7 µM and a GI50 (SNB-19 CNS) of 14.1 µM. The TGI (SNB-19 CNS) was > 100 µM, the GI50 (M14 melanoma) was 24.4 µM and the TGI (M14 melanoma) was 68.6 µM. For the same compound, the GI50 (HCT-116 colon) was 24.9 µM, the TGI (HCT-116 colon) was 98.2 µM and the GI50 (MDA-MB-231 breast) was 13.7 µM. For the same compound, the TGI (MDA-MB-231 breast) was > 61.4 µM, the GI50 (HOP-62 NSCLC) was 26.7 µM and the TGI (HOP-62 NSCLC) was > 91.9 µM. The GI50 (A498 renal) was 0.896 µM, the TGI (A498 renal) was 16.2 µM and the GI50 (OVCAR-3 ovarian) was 10.4 µM. For the same compound, the TGI (OVCAR-3 ovarian) was > 83.4 µM, the GI50 (SK-MEL-28 melanoma) was 30.2 µM and the TGI (SK-MEL-28 melanoma) was > 100 µM. For the same compound, the GI50 (OVCAR-5 ovarian) was 15.8 µM, the TGI (OVCAR-5 ovarian) was > 95 µM and the GI50 (NCI/ADR-RES ovarian) was 18.3 µM. The TGI (NCI/ADR-RES ovarian) was > 81.5 µM, the GI50 (786-0 renal) was 19.3 µM and the TGI (786-0 renal) was 91.7 µM. For the same compound, the GI50 (UO-31 renal) was 6.96 µM, the TGI (UO-31 renal) was > 65.6 µM and the GI50 (LOX IMVI melanoma) was 18.1 µM. For the same compound, the TGI (LOX IMVI melanoma) was 57.7 µM, the GI50 (MCF7 breast) was 26.9 µM and the TGI (MCF7 breast) was > 100 µM.
